Tests used:
[1] = test system: CWR22R; assay: Antiproliferative activity against human 22Rv1 cells assessed as reduction in cell viability after 96 hrs by propidium iodide staining based fluorescence assay; format: functional
[2] = test system: HepG2; assay: Cytotoxicity against human HepG2 cells assessed as cell viability after 72 hrs by MTT assay; format: functional, cell-based; settings: for AC50 / minimal effective concentration: HepG2, 72 h; for minimal effective concentration: read-out: MEC
[3] = Antiproliferative activity against human DU145 cells assessed as reduction in cell viability after 96 hrs by propidium iodide staining based fluorescence assay; format: functional, DU-145
[4] = Antiproliferative activity against human VCaP cells assessed as reduction in cell viability after 96 hrs by propidium iodide staining based fluorescence assay; format: functional
[5] = test system: LNCaP; assay: Antiproliferative activity against human LNCAP cells assessed as reduction in cell viability after 96 hrs by propidium iodide staining based fluorescence assay; format: functional
[6] = Half life in human liver microsomes at 3 uM in presence of NADPH by LC-MS/MS analysis; format: ADME
[7] = biological target: hERG (KCNH2) (Homo sapiens, UniProt Q12809); assay: Inhibition of human ERG transfected in CHO cells assessed as blockade of tail current at 25 uM by patch clamp assay; format: cell-based; settings: CHO cells transfected with human ERG
[8] = biological target: Albumin (Homo sapiens, UniProt P02768); assay: Binding affinity to human serum albumin at 5 uM by equilibrium dialysis based LC-MS/MS analysis; format: ADME; settings: read-out: PB (converted)
[9] = Homo sapiens, 22Rv1, 96 h, read-out: IC50
[10] = Homo sapiens, DU-145, 96 h, read-out: IC50
[11] = Homo sapiens, VCaP, 96 h, read-out: IC50
[12] = Homo sapiens, LNCaP, 96 h, read-out: IC50

Sequence of hERG (KCNH2) (Q12809 whole entry): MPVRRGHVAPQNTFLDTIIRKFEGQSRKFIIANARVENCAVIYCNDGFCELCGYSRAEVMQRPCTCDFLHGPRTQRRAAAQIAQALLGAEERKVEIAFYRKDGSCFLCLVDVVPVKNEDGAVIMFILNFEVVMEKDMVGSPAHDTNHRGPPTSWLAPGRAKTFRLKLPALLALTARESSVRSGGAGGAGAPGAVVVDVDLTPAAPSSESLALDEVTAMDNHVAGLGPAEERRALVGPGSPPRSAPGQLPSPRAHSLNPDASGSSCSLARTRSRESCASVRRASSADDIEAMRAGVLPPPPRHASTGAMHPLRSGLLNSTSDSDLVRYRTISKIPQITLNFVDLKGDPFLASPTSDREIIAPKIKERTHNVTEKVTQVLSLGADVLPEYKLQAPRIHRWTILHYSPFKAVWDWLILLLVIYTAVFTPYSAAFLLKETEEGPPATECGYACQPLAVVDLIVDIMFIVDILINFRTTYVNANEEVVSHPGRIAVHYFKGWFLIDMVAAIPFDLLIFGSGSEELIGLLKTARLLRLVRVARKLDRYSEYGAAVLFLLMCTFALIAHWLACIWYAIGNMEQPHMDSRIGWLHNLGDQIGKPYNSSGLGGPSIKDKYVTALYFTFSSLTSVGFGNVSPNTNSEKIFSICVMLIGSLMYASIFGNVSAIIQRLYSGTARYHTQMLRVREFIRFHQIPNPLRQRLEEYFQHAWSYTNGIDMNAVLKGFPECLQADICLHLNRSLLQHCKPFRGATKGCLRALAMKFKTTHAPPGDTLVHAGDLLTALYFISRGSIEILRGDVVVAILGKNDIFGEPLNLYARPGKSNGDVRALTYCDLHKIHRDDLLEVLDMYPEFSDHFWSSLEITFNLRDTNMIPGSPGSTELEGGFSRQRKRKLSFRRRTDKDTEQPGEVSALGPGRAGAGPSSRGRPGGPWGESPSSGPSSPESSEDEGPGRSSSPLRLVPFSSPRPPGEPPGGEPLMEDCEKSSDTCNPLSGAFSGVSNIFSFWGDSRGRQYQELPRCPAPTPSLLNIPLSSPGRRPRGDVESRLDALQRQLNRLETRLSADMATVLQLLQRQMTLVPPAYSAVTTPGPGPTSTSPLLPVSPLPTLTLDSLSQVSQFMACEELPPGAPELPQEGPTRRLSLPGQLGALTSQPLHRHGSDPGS
Sequence of Albumin (P02768 whole entry): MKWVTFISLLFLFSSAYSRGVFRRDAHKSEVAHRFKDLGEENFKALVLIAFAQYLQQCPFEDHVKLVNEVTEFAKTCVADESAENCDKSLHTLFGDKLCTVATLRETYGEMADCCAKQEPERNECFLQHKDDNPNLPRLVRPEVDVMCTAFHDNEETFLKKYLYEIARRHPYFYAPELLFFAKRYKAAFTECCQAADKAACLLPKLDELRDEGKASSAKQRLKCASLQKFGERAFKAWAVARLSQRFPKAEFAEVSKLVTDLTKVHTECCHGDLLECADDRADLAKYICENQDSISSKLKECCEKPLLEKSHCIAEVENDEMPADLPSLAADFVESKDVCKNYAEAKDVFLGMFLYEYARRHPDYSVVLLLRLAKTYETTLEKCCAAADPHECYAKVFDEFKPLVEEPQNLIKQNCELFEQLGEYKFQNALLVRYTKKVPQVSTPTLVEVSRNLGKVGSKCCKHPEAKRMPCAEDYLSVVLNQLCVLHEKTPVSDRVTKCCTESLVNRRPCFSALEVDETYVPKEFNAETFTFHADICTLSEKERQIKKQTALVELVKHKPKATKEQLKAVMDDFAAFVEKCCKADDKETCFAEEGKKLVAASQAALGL

| SMILES | IC50 [1, 9] [µM] | Activity [2] | IC50 [3, 10] [µM] | IC50 [4, 11] [µM] | IC50 [5, 12] [µM] | half-life at 3 µM [6] [h] | inhibition at 25 µM [7] [%] | fraction unbound at 5 µM [8] | AC50 [2] [µM] | minimal effective concentration [2] [µM] | IC50 ([1]; cwr22r) | IC50 ([3]; du-145) | IC50 ([4]; vcap) | IC50 ([5]; lncap) |
| --- | --- | --- | --- | --- | --- | --- | --- | --- | --- | --- | --- | --- | --- | --- |
| CC(O)(COc1cc(C(F)(F)F)cc(C(F)(F)F)c1)C(=O)Nc1ccc(C(F)(F)F)cc1 (configuration not stated) | 8.49 | Dose-dependent effect | 9.23 | 4.15 | 3.35 | – | – | – | – | – | – | – | – | – |
| CC(O)(CSc1cc(C(F)(F)F)cc(C(F)(F)F)c1)C(=O)Nc1ccc(C#N)c(C(F)(F)F)c1 (configuration not stated) | 1.9 | Dose-dependent effect | 2.85 | 2.73 | 2.34 | – | – | – | – | – | – | – | – | – |
| CC(O)(CS(=O)(=O)c1cccc(C(F)(F)F)c1)C(=O)Nc1cc(C(F)(F)F)cc(C(F)(F)F)c1 (configuration not stated) | 10.3 | Dose-dependent effect | 11.5 | 9.98 | 9.5 | – | – | – | – | – | – | – | – | – |
| CC1(C)C(=O)N(c2ccc([N+](=O)[O-])cc2C(F)(F)F)C(=S)N1c1cc(C(F)(F)F)cc(C(F)(F)F)c1 | 6.97 | Dose-dependent effect | 10 | 18.6 | 4.67 | 1.19 | 9.44 | 0.001 | – | – | – | – | – | – |
| CC(O)(CSc1cc(C(F)(F)F)cc(C(F)(F)F)c1)C(=O)Nc1ccc([N+](=O)[O-])cc1C(F)(F)F (configuration not stated) | 2.29 | Dose-dependent effect | 3.38 | 3.52 | 3.11 | – | – | – | – | – | – | – | – | – |
| CC(O)(CS(=O)(=O)c1cccc(OC(F)(F)F)c1)C(=O)Nc1cc(C(F)(F)F)cc(C(F)(F)F)c1 (configuration not stated) | 12.8 | Dose-dependent effect | 14.1 | 9.99 | 9.34 | – | – | – | – | – | – | – | – | – |
| CNC(=O)c1ccc(N2C(=S)N(c3ccc(C#N)c(C(F)(F)F)c3)C(=O)C2(C)C)cc1F [ENZALUTAMIDE] | – | Dose-dependent effect | 32.3 | 53 | 11.5 | – | – | – | – | – | – | – | – | – |
| CC(O)(COc1cc(C(F)(F)F)cc(C(F)(F)F)c1)C(=O)Nc1ccc([N+](=O)[O-])cc1C(F)(F)F (configuration not stated) | 16.1 | Dose-dependent effect | 11.6 | 23.7 | 24 | – | – | – | – | – | – | – | – | – |
| CN(C)CCCN1c2ccccc2Sc2ccc(Cl)cc21 [CHLORPROMAZINE] | – | – | – | – | – | – | – | – | 7.62 | 2.07 | – | – | – | – |
| CC(O)(CS(=O)(=O)c1ccccc1OC(F)(F)F)C(=O)Nc1cc(C(F)(F)F)cc(C(F)(F)F)c1 (configuration not stated) | 8.99 | Dose-dependent effect | 12.9 | 9.95 | 8.02 | 4.83 | 13.4 | 0.217 | – | – | – | – | – | – |
| N#CC(C#N)=NNc1cccc(Cl)c1 [CARBONYL CYANIDE M-CHLOROPHENYLHYDRAZONE] | – | – | – | – | – | – | – | – | 8.28 | 3.25 | – | – | – | – |
| CC1(C)C(=O)N(c2ccc(C#N)c(C(F)(F)F)c2)C(=S)N1c1cc(C(F)(F)F)cc(C(F)(F)F)c1 | – | Dose-dependent effect | – | – | – | – | – | – | – | – | ND(Insoluble) | ND(Insoluble) | ND(Insoluble) | ND(Insoluble) |
| CC(O)(CSc1ccccc1OC(F)(F)F)C(=O)Nc1cc(C(F)(F)F)cc(C(F)(F)F)c1 (configuration not stated) | 2.94 | Dose-dependent effect | 6.41 | 2.9 | 2.91 | – | – | – | – | – | – | – | – | – |
| CC(O)(CSc1cccc(C(F)(F)F)c1)C(=O)Nc1cc(C(F)(F)F)cc(C(F)(F)F)c1 (configuration not stated) | 9.67 | Dose-dependent effect | 10 | 9.86 | 8.75 | – | – | – | – | – | – | – | – | – |
| CC(O)(CS(=O)(=O)c1cc(C(F)(F)F)cc(C(F)(F)F)c1)C(=O)Nc1ccc([N+](=O)[O-])cc1C(F)(F)F (configuration not stated) | 2.41 | Dose-dependent effect | 3.05 | 7.11 | 3.09 | – | – | – | – | – | – | – | – | – |
| CC(O)(CS(=O)(=O)c1cc(C(F)(F)F)cc(C(F)(F)F)c1)C(=O)Nc1ccc(C#N)c(C(F)(F)F)c1 (configuration not stated) | 3.11 | Dose-dependent effect | 5.58 | 6.21 | 2.86 | – | – | – | – | – | – | – | – | – |
| CC(O)(COc1cc(C(F)(F)F)cc(C(F)(F)F)c1)C(=O)Nc1ccc([N+](=O)[O-])c(C(F)(F)F)c1 (configuration not stated) | 1.09 | Dose-dependent effect | 2.9 | 1.66 | 0.99 | – | – | – | – | – | – | – | – | – |
| CC1(C)C(=O)N(c2ccc(C#N)cc2C(F)(F)F)C(=S)N1c1cc(C(F)(F)F)cc(C(F)(F)F)c1 | – | Dose-dependent effect | – | – | – | – | – | – | – | – | ND(Insoluble) | ND(Insoluble) | ND(Insoluble) | ND(Insoluble) |
| CC(O)(CS(=O)(=O)c1cc(C(F)(F)F)cc(C(F)(F)F)c1)C(=O)Nc1ccc(C#N)cc1C(F)(F)F (configuration not stated) | – | Dose-dependent effect | – | – | – | – | – | – | – | – | ND(Insoluble) | ND(Insoluble) | ND(Insoluble) | ND(Insoluble) |
| CC(O)(CSc1cccc(OC(F)(F)F)c1)C(=O)Nc1cc(C(F)(F)F)cc(C(F)(F)F)c1 (configuration not stated) | 6.42 | Dose-dependent effect | 9.61 | 9.29 | 7.76 | – | – | – | – | – | – | – | – | – |
| CC(O)(CS(=O)(=O)c1ccccc1C(F)(F)F)C(=O)Nc1cc(C(F)(F)F)cc(C(F)(F)F)c1 (configuration not stated) | 9.45 | Dose-dependent effect | 11 | 8.55 | 8.51 | – | – | – | – | – | – | – | – | – |
| CC(O)(CS(=O)(=O)c1ccc(F)cc1)C(=O)Nc1ccc(C#N)c(C(F)(F)F)c1 (configuration not stated) | – | Dose-dependent effect | – | – | – | – | – | – | – | – | – | – | – | – |
| CC(O)(CSc1cc(C(F)(F)F)cc(C(F)(F)F)c1)C(=O)Nc1ccc(C(F)(F)F)cc1 (configuration not stated) | 9.75 | Dose-dependent effect | 16.4 | 9.88 | 9.61 | – | – | – | – | – | – | – | – | – |
| CC1(C)C(=O)N(c2ccc([N+](=O)[O-])c(C(F)(F)F)c2)C(=S)N1c1cc(C(F)(F)F)cc(C(F)(F)F)c1 | 20.2 | Dose-dependent effect | 18.1 | 28.4 | 9.93 | – | – | – | – | – | – | – | – | – |
| CC(O)(CSc1ccccc1C(F)(F)F)C(=O)Nc1cc(C(F)(F)F)cc(C(F)(F)F)c1 (configuration not stated) | 4.37 | Dose-dependent effect | 8.66 | 3.84 | 3.57 | – | – | – | – | – | – | – | – | – |
| CC(O)(CSc1cc(C(F)(F)F)cc(C(F)(F)F)c1)C(=O)Nc1ccc(C#N)cc1C(F)(F)F (configuration not stated) | 4.65 | Dose-dependent effect | 9.09 | 6.65 | 7.76 | – | – | – | – | – | – | – | – | – |
| CNC(=O)c1ccc(N2C(=S)N(c3cc(C(F)(F)F)cc(C(F)(F)F)c3)C(=O)C2(C)C)cc1 | 26.4 | Dose-dependent effect | 47.9 | 19.8 | 11.3 | – | – | – | – | – | – | – | – | – |
| CC(O)(COc1cc(C(C)(C)C)cc(C(C)(C)C)c1)C(=O)Nc1ccc(C#N)c(C(F)(F)F)c1 (configuration not stated) | 2.27 | Dose-dependent effect | 3.15 | 2.98 | 2.67 | – | – | – | – | – | – | – | – | – |
| CC(O)(COc1cc(C(F)(F)F)cc(C(F)(F)F)c1)C(=O)Nc1ccc(C#N)cc1C(F)(F)F (configuration not stated) | 4.07 | Dose-dependent effect | 8.05 | 4.77 | 3.56 | – | – | – | – | – | – | – | – | – |
| C[C@](O)(CSc1cc(C(F)(F)F)cc(C(F)(F)F)c1)C(=O)Nc1ccc(C#N)c(C(F)(F)F)c1 | 1.13 | – | 2.66 | 0.84 | 0.79 | 0.108 | – | – | 2.35 | 1.22 | – | – | – | – |
